Laboratory results taken from patent EP4789662A1, “POWDER FOR INHALATION” (Nagase Viita Co., Ltd., priority 2023, dated 2025).

Experiments:
[1] = Animal test 2: amount of PL transferred into blood (pharmacokinetics); type: in vivo; settings: rat, po, rats, p.o. 60 mg/kg, Mean±S.E. (n=4-5)
Protocol: The amount of PL transferred into blood was evaluated in oral administration and intratracheal administration. The blood PL concentrations up to 12 hours after administration were measured over time in a group of rats having undergone intratracheal administration of the mT/PL-RP (Example 1) (5 mg-PL/kg) and in a group of rats having undergone oral administration of the PL (Comparative Example 2) (60 mg/kg). FIG. 9 and Table 7 show the results.

[2] = tested on: chronic obstructive pulmonary disease (COPD); test: Animal test 1: OVA-induced COPD in rats, lung tissue and BALF infiltrating cells; type: in vivo; settings: OVA-challenge; p.o. 60 mg/kg; BALF 24 h after OVA; Mean±S.E. (n=4)
Protocol: In order to evaluate the pharmacological effect of the mT/PL-RP (Example 1) via intratracheal administration, chronic obstructive pulmonary disease (COPD) was induced in rats, and the effect was compared with the effect via oral administration. Ovalbumin (OVA, Sigma-Aldrich) was intraperitoneally administered three times at seven-day intervals. Next day, the mT/PL-RP (Example 1) (5 mg-PL/kg) was intratracheally administered, or the PL (Comparative Example 2) (60 mg/kg) was orally administered. One hour after the administration, inflammation was caused by intratracheally administering micronized OVA powder to induce COPD. Twenty-four hours after the inflammation caused by OVA administration, the lungs were excised and bronchoalveolar lavage fluid (BALF) was collected. The lung tissue was stained with peroxidase by a standard method and subsequently observed. […] FIG. 8 and Table 6 show the result.

Cmax [1]: 250 ± 160 ng/mL
Tmax [1]: 1.6 ± 0.6 h
SMILES: O=C(Nc1cccc2c(=O)cc(-c3nnn[nH]3)oc12)c1ccc(OCCCCc2ccccc2)cc1 [Crystalline PL, pranlukast]
Inflammatory cells in BALF, Eosinophils [2]: 1.5 ± 0.6 × 10^4 cells/mL
Inflammatory cells in BALF, Macrophages [2]: 3.1 ± 1.3 × 10^4 cells/mL
Inflammatory cells in BALF, Neutrophils [2]: 11.5 ± 2.7 × 10^4 cells/mL
